Experimental data reported in patent US6630484B1 (priority 1996, dated 2003).
pIC50: −log10 of the molar value. “Also recorded” adds a separate entry of the source.

Assays:
[1] = 50 to 550 μg/kg/day continuous i.v. infusion over 5 days, cited from earlier work
[2] = animals; cited from earlier work
[3] = target: T1, Golgi α-mannosidase II (Homo sapiens, UniProt Q16706); test: Inhibition of the glycoprotein processing Golgi α-mannosidase II; type: biochemical
T1 sequence (Q16706 1-1144): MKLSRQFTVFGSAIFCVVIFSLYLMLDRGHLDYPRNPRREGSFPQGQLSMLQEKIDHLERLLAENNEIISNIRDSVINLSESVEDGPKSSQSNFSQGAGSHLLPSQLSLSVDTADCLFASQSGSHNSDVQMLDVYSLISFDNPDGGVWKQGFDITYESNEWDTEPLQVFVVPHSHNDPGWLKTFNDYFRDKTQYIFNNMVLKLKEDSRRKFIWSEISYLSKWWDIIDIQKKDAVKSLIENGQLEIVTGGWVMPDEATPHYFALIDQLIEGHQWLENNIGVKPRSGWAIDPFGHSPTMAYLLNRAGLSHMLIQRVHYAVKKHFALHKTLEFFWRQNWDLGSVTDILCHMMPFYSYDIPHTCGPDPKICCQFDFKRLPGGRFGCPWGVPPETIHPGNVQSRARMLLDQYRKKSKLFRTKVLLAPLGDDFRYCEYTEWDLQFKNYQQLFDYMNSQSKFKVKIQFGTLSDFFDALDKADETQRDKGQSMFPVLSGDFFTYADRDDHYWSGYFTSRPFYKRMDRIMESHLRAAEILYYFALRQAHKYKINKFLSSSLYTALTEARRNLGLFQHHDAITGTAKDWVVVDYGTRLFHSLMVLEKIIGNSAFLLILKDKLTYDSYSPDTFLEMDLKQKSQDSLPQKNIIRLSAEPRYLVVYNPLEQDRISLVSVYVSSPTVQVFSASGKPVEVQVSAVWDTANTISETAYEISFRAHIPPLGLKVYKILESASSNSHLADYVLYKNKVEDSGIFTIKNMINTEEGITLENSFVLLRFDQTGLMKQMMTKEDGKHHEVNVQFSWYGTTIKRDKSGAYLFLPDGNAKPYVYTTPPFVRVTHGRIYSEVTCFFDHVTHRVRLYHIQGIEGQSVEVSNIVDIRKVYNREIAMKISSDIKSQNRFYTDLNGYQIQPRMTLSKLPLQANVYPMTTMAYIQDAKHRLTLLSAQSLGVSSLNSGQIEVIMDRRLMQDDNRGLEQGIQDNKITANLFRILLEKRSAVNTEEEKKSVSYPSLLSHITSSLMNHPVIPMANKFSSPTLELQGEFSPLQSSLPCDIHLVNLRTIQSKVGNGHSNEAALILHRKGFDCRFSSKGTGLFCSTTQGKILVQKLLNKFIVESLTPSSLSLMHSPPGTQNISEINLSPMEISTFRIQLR

[4] = target: T2, α-mannosidase from jack bean (Canavalia ensiformis, UniProt C0HJB3); test: Screen for inhibition of α-mannosidase from jack bean; type: biochemical; conditions: for pIC50: read-out: Concentration Required for 50% Inhibitions, α-Mannosidase (jack bean)
T2 sequence (C0HJB3 1-981): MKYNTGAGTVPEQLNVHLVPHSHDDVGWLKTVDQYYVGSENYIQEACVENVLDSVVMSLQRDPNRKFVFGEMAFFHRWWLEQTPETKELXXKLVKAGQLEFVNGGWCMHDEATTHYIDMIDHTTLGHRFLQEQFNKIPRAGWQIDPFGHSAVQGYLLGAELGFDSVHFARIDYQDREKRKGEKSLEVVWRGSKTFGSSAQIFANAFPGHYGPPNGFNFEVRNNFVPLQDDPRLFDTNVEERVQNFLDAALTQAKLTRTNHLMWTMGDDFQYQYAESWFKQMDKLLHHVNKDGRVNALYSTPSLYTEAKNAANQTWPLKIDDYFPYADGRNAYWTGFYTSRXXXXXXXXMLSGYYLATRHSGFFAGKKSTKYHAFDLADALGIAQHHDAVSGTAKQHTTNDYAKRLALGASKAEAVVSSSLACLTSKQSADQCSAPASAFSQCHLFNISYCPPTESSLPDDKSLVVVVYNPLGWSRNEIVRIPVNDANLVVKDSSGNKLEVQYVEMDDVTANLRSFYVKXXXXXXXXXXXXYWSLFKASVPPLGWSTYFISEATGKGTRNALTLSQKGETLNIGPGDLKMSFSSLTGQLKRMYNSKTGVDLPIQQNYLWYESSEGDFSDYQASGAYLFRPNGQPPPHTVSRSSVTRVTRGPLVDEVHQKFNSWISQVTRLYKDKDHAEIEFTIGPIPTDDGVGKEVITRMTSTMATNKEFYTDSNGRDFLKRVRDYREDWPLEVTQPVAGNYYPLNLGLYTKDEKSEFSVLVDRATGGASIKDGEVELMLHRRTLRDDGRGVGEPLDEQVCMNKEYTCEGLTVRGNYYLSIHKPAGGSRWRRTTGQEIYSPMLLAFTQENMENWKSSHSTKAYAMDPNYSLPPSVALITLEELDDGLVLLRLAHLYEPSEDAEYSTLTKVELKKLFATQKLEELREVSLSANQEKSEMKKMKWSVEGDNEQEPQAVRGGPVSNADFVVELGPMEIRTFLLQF

[5] = target: T3, lysosomal mannosidase (Homo sapiens, UniProt O00754); test: Selectivity for inhibition of α-mannosidase II vs. lysosomal mannosidase; type: biochemical; conditions: for ratio M/L (smaller is better): ratio of activities of α-Mannosidase II/lysosomal mannosidase
T3 sequence (O00754 50-1011): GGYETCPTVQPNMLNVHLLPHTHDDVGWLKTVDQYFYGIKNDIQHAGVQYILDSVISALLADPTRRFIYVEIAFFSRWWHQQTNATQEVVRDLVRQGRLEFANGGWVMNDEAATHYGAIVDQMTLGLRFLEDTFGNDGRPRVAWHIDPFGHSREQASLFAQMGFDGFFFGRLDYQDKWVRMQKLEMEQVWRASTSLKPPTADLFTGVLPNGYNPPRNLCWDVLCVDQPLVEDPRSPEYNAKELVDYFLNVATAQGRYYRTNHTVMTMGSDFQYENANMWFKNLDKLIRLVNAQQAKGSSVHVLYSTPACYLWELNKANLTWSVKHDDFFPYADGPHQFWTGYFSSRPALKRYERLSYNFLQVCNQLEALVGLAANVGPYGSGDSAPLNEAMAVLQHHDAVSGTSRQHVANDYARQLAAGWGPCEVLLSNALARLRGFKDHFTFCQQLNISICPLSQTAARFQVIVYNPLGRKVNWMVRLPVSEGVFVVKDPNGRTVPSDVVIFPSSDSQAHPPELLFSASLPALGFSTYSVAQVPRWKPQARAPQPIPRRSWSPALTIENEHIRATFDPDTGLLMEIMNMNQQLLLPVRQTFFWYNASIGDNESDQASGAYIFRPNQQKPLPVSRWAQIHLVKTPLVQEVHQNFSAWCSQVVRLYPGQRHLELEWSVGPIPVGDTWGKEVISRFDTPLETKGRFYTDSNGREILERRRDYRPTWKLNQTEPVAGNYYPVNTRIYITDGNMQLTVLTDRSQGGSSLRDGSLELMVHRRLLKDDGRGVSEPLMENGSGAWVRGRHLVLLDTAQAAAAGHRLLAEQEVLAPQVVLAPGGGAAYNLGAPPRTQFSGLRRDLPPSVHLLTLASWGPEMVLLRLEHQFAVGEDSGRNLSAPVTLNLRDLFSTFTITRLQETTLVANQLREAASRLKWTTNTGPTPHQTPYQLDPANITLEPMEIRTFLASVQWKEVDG

| SMILES | α-mannosidase (jack bean) inhibitory activity (in words) [4] | pIC50 [4] | selectivity for inhibition of α-mannosidase II over lysosomal mannosidase (in words) [5] | ratio M/L (smaller is better) [5] | also measured |
| --- | --- | --- | --- | --- | --- |
| O[C@H]1[C@H]2[C@H](O)CCCN2C[C@H]1O [Compound 1, swainsonine] |  |  |  |  | toxicity observed in patients ([1]; repeated at 28 day intervals): Moderate toxicity; Serum half-life ([1]; patients with advanced malignancies): 12 h; preclinical toxicity [2]: low preclinical toxicity; inhibition of α-mannosidase II (in words) [3]: potent inhibitor |
| CC[C@H]1C[C@@H](O)[C@@H]2[C@H](O)[C@H](O)CN2C1 [Compound 24, (1S,2R,6S,8R,8aR)-6-Ethyl-1,2,8-trihydroxyindolizidine] | highest degree of inhibitory activity | 4.52 | increased selectivity | 0.2 |  |
| O[C@H]1[C@H]2[C@H](O)C[C@H](CCOCc3ccccc3)CN2C[C@H]1O [Compound 25, (1S,2R,6S,8R,8aR)-6-[2-(Benzyloxy)ethyl]-1,2,8-trihydroxyindolizidine] | slight decrease in inhibitory activity | 4.15 | increased selectivity | 0.33 |  |
| CC[C@@H]1C[C@@H](O)[C@@H]2[C@H](O)[C@H](O)CN2C1 [Compound 26, (1S,2R,6R,8R,8aR)-6-Ethyl-1,2,8-trihydroxyindolizidine] | highest degree of inhibitory activity; also recorded: significant decrease in activity | 3.64 | increased selectivity | 0.47 |  |
| O[C@H]1[C@H]2[C@H](O)C[C@@H](CCOCc3ccccc3)CN2C[C@H]1O [Compound 27, (1S,2R,6R,8R,8aR)-6-[2-(Benzyloxy)ethyl]-1,2,8-trihydroxyindolizidine] | significant decrease in activity | 3.56 |  |  |  |
| CCCC[C@@H]1CCN2C[C@@H](O)[C@@H](O)[C@H]2[C@@H]1O [Compound 52, (1S,2R,7R,8R,8aR)-7-Butyl-1,2,8-trihydroxyindolizidine] |  | < 3.00 | increased selectivity | 0.02 | selectivity for inhibition of α-mannosidase II over lysosomal mannosidase [5]: 50 fold; melting point: 156 °C |
| O[C@@H]1[C@H](CCOCc2ccccc2)CCN2C[C@@H](O)[C@@H](O)[C@@H]12 [Compound 53, (1S,2R,7S,8R,8aR)-7-[2-(Benzyloxy)ethyl]-1,2,8-trihydroxyindolizidine] | weak inhibitor | 3.05 |  |  |  |
| CCCC[C@@H]1CCN2CC3OC(C)(C)O[C@H]3[C@@H]2[C@H]1O (stereo partly drawn) [Compound 54, (1S,2R,7R,8S,8aS)-7-Butyl-8-hydroxy-1,2-O-isopropylidenedioxyindolizidine] |  | < 3.00 |  |  |  |
| CC1(C)OC2CN3CC[C@@H](CCOCc4ccccc4)[C@H](O)[C@H]3[C@@H]2O1 (stereo partly drawn) [Compound 55, (1S,2R,7R,8S,8aS)-7-[2-(Benzyloxy)ethyl]-8-hydroyx-1,2-O-isopropylidenedioxyindolizidine] |  | < 3.00 |  |  |  |
| CCCC[C@@H]1CCN2C[C@@H](O)[C@@H](O)[C@@H]2[C@H]1O [Compound 56, (1S,2R,7R,8S,8aS)-7-Butyl-1,2,8-trihydroxyindolizidine] |  | < 3.00 |  |  |  |
| O[C@H]1[C@H](CCOCc2ccccc2)CCN2C[C@@H](O)[C@@H](O)[C@H]12 [Compound 57, (1S,2R,7S,8S,8aS)-7-[2-(Benzyloxy)ethyl]-1,2,8-trihydroxyindolizidine] |  | < 3.00 |  |  |  |
| CCCC[C@H]1CCN2C[C@@H](O)[C@@H](O)[C@@H]2[C@H]1O [Compound 77, (1S,2R,7S,8S,8aS)-7-Butyl-1,2,8-trihydroxyindolizidine] |  | < 3.00 |  |  |  |
| O[C@H]1[C@@H](CCOCc2ccccc2)CCN2C[C@@H](O)[C@@H](O)[C@H]12 [Compound 78, (1S,2R,7R,8S,8aS)-7-[2-(Benzyloxy)ethyl]-1,2,8-trihydroxyindolizidine] |  | < 3.00 |  |  |  |
